Results from PubChem BioAssay AID179 (DTP/NCI, 2004).
Activity calls are given as the source filed them.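 The calls were made as follows: active = compounds giving half or more protection of infected cells from virus-caused growth loss, again on retest; inactive = the rest.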

System: CEM cells HIV-1 protection, formazan growth assay
Experiment: NCI AIDS Antiviral Assay
Details: for IC50: measured here: growth of uninfected CEM cells
Outline: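 Screen of anti-HIV-1 activity in human CEM cells using a formazan-based growth measurement at five drug concentrations. Hits with 50% or greater protection were repeated, and confirmation required reproducible complete protection.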

Compound	EC50	IC50	outcome
Cc1ccc(S(=O)(=O)N/N=C(\c2nc3ccc(Cl)cc3[nH]c2=O)C(O)c2ccco2)cc1 (stereo not drawn)	> 275 µM	17 µM	
O=c1c2c(oc3ccccc13)-c1ccccc1OC2	> 200 µM	> 200 µM	
O=C(Cl)c1ccc([As](=O)(O)O)cc1	> 200 µM	> 200 µM	
O=S1(=O)CS(=O)(=O)CS(=O)(=O)C1	> 200 µM	89.1 µM	
CC(C)(C)NNc1c([N+](=O)[O-])cnn(-c2ccccc2)c1=O	> 49 µM	0.251 µM	
COc1cc(/C=N/Nc2nnc3c4ccccc4c4ncccc4c3n2)cc(OC)c1OC	> 100 µM	57.5 µM	
CCSc1nnc2c(-c3ccccc3)n[nH]c2n1			inactive
CSc1nn(C)cc2ncnc1-2	> 200 µM	> 200 µM	
OCC1CCCC1O (stereo not drawn)			inactive
Cc1cc(CO)c(O)c(CNCc2cc(C)cc(CO)c2O)c1	> 200 µM	8.71 µM	
O=C(O)c1ccsc1C(=O)c1ccccc1	> 200 µM	> 200 µM	
O=C1NC(=O)C(=Cc2cccc(F)c2)C(=O)N1	> 112 µM	> 112 µM	
COc1cccc2c1C1(O)C2CCCCCCCCCC12OCCCO2 (stereo not drawn)	> 91.2 µM	69.2 µM	
O=C(O)C(SC(=S)c1ccc(C(=S)SC(C(=O)O)c2ccccc2)cc1)c1ccccc1 (stereo not drawn)			inactive
Nc1ccc2c(O)c(N=Nc3ccc(-c4ccc(N=Nc5c(S(=O)(=O)O)cc6cc(S(=O)(=O)O)c(N=Nc7cc(Cl)ccc7Cl)c(N)c6c5O)cc4)cc3)c(S(=O)(=O)O)cc2c1			inactive
O=c1[nH][nH]c(=O)c2c1ccc1oc3ccccc3c12	> 200 µM	> 200 µM	
N#C/C(=C\c1cccc(Br)c1)C(=O)c1ccccc1	> 115 µM	50.1 µM	
CCOC(=O)[C@]12C3C=CC(C3)C1C(=O)C1OC12 (stereo partly drawn)	> 562 µM	> 562 µM	
CC1=NC(=Cc2ccc([N+](=O)[O-])cc2)C(=O)N1n1c(-c2ccccc2)nc2ccccc2c1=O	> 200 µM	34.7 µM	
N#CC(/C(=N\NC(=O)c1ccncc1)C(=O)Nc1ccc([N+](=O)[O-])cc1[N+](=O)[O-])c1nc(-c2ccc(Br)cc2)cs1 (stereo not drawn)	> 389 µM	> 389 µM	
COC(=O)C1=CCON(c2ccccc2)C1c1ccccc1 (stereo not drawn)	> 45.7 µM		
CC1=C2CN(C(=O)OCC(C)C)CCC2C2=C(C(=O)c3ccccc3C2=O)C1C (stereo not drawn)	> 100 µM	> 100 µM	
CSC1(SC)CCCCCCCCCCC1	> 200 µM	158 µM	

Compound	EC50	IC50	outcome
COC1(OC)CC(CO)(CNc2nc(N)nc(Cl)c2C=O)C1	> 162 µM	14.1 µM	
Cc1nnc(N)nc1/C=C\c1ccc(N(C)C)cc1	> 200 µM	3.47 µM	
C/C(CC(=O)NC1=CC=C(NC(=O)C/C(C)=N\Nc2ccccc2)CC1)=N/Nc1ccccc1	> 56.2 µM	> 56.2 µM	
O=C(/C=C/c1cccc(F)c1)c1ccccc1	> 31.6 µM	19.1 µM	
CC1(C)OC(=O)NC1=O			inactive
CCC(C)C(=O)c1c(O)c(CC=C(C)C)c2c3c(cc(=O)oc13)C(CC)O2 (stereo not drawn)	> 200 µM	25.1 µM	
CCN(CC)CCOC(=O)c1[nH]c(=O)[nH]c(=O)c1N	> 200 µM	> 200 µM	
CN(C)Cc1[nH]c(=O)[nH]c(=O)c1O	> 200 µM	23.4 µM	
COC(=O)/C=C/CCC#Cc1ccccc1C#CCC/C=C/C(=O)OC	> 200 µM	2.82 µM	
O=c1[nH]n(CCc2ccncc2)c(=O)c2ccccc12	> 200 µM	> 200 µM	
Cc1ccc(S(=O)(=O)OC[C@H]2CC=CC[C@H]2COS(=O)(=O)c2ccc(C)cc2)cc1	> 200 µM	> 200 µM	
Cc1cc(S(=O)(=O)Nc2nc(N)nc(N3N=CCC3C)n2)c(SCC(=O)O)cc1Cl (stereo not drawn)	> 200 µM	> 200 µM	
O=Cc1c2c(cc3c1CC1(C3)Cc3cc4c(c(C=O)c3C1)CCC4)CCC2	> 200 µM	34.7 µM	
COc1ccccc1C=C1C(=O)NC(=O)NC1=O	> 145 µM	> 145 µM	
O=[N+]([O-])c1cccc(S(=O)(=O)OCn2ncc3ccc([N+](=O)[O-])cc32)c1	> 200 µM	151 µM	
NCCS	> 1410 µM	525 µM	
O=C(NC1CCCCC1)N1CCNC1=S	> 200 µM	> 200 µM	
CC(C)=CCC/C(C)=C/COC(C)(C)C1=CCC(C)CC1 (stereo not drawn) (tested in a mixture with another compound)	> 200 µM	> 200 µM	
C=C1CC[N+]2(C)CCCC12 (stereo not drawn)	> 1150 µM	> 1150 µM	
CCCCn1c(=O)[nH]c2c(N)ncnc21	> 200 µM	> 200 µM	
O=C(Cn1c(=O)sc2ccc(Cl)cc21)N1CCN(CCO)CC1	> 200 µM	> 200 µM	
C[Si](C)(C)C#CCOC=C1CC1			inactive
NC1=CNC(=O)C1	> 138 µM	> 138 µM	

Compound	EC50	IC50	outcome
COc1cc(C2SC(N)=Nc3c2c(C)nn3C(=O)c2ccccc2O)cc(OC)c1OC (stereo not drawn)	> 20 µM	0.457 µM	
COc1ccc2c(c1)OCC1=C2Oc2ccccc2C1	> 200 µM	26.9 µM	
CCOC(=O)/C(C#N)=C1/C(O)=C(C(=O)OC)C(C(=O)OC)=C1C(=O)OC			inactive
CCCCCCCCCCCc1c2oc3ccc([N+](=O)[O-])cc3nc-2cc(Nc2cc([N+](=O)[O-])ccc2O)c1=O	> 3.31 µM	> 3.31 µM	
COc1ccc2nc3cc(Cl)ccc3c(Nc3ccc(C(=O)O)c(O)c3)c2c1	> 60.3 µM	> 60.3 µM	
COc1ccc(C(c2ccccc2C(=O)O)c2ccc(OC)c3ccccc23)c2ccccc12	> 41.7 µM	10.7 µM	
COC(=O)c1ccc(-n2c(C)nc(=O)c(-c3ccccc3)c2C)cc1	> 100 µM	> 100 µM	
Cc1n[nH]c(=O)n1C1CCCC1	> 200 µM	> 200 µM	
O=C1N[C@H](C(=O)O)[C@@H](c2ccc(OCc3ccccc3)cc2)O1	> 200 µM	> 200 µM	
C=C1C[C@@H]2O[C@H]3[C@H]4[C@@H](C[C@@H](C)[C@@H](OC(C)=O)[C@H]42)[C@@H](C)CO[C@@]3(C)[C@H](OC(=O)CCCCCCC)CC1=O	> 200 µM	10 µM	
CCOC(=O)N1CC(C)=C(C)CN1C(=O)Nc1ccc(Cl)c(Cl)c1	> 200 µM	81.3 µM	
CN(/N=C/C=N/N(C)C1=NCCCN1)C1=NCCCN1	110 µM	> 200 µM	
O=C1C(=O)C2(CC1S(=O)(=O)c1ccccc1)c1ccccc1-c1ccccc12 (stereo not drawn)			inactive
N#CCN(CC#N)C1CC=CCC1N(CC#N)CC#N (stereo not drawn)	> 200 µM	102 µM	
Cc1ccc(S(=O)(=O)N/N=C/C(=C/c2ccc(Cl)cc2)CC(/C=N/NS(=O)(=O)c2ccc(C)cc2)=C\c2ccc(Cl)cc2)cc1	> 200 µM	3.89 µM	
COC(=O)C(=O)C(C(=O)C(=O)Nc1ccc([N+](=O)[O-])cc1)c1nc2ccccc2[nH]c1=O (stereo not drawn)	> 575 µM	72.4 µM	
Cc1cc(Br)c(O)c(-c2cscn2)c1	> 200 µM	11.2 µM	
CC1=C(CCc2ccoc2)[C@@]2(C)CCCC(C)(C)C2C(=O)[C@@H]1O[C@H]1C(=O)C2C(C)(C)CCC[C@]2(C)[C@](O)(CCc2ccoc2)C1C (stereo partly drawn)	> 4.27 µM	> 4.27 µM	
O=c1c2ccccc2n2c(-c3ccc(O)cc3)nnc2n1-c1ccccc1	> 200 µM	> 100 µM	
O=C(CNC1=NCCN1)Nc1ccc(NC(=O)c2ccc(C(=O)Nc3ccc(NC(=O)CNC4=NCCN4)cc3)cc2)cc1	24 µM	> 200 µM	
CCOC(=O)C(C(=O)OCC)C1c2ccccc2-c2ccccc21	> 200 µM	77.6 µM	
O=C1c2ccccc2C(=O)C1(Cl)C1(Cl)C(=O)c2ccccc2C1=O			inactive
CCN(CC)CC(=O)NC1c2ccccc2Oc2c(C)cccc21 (stereo not drawn)	> 288 µM	145 µM	

Compound	EC50	IC50	outcome
O=C(/C=C/c1cc(Cl)cc(Cl)c1O)c1cccc(O)c1			inactive
N#C/C(=C1\SC(=O)CN1c1ccc(Cl)cc1)c1nc2ccccc2o1	> 200 µM	34.7 µM	
CC(C)C1CC=CCC12C(=O)NC(=O)NC2=O (stereo not drawn)	> 1050 µM	955 µM	
Cc1ccc(S(=O)(=O)c2ccccc2[N+](=O)[O-])cc1	14.5 µM	81.3 µM	
O=C1c2ccccc2CCC1C(O)(C(F)(F)F)C(F)(F)F (stereo not drawn)	> 200 µM	> 200 µM	
NCCCNCCCCN1CCOC1=O	> 200 µM	50.1 µM	
COC([C@@H](OC(=O)c1ccccc1)[C@H](OC(=O)c1ccccc1)C(O)COC(=O)c1ccccc1)n1cc(C)c(=O)[nH]c1=O (stereo partly drawn)	> 200 µM	13.2 µM	
O=C1CSC(c2ccccc2)C1C(=O)c1ccc(NCc2nc3ccccc3[nH]2)cc1 (stereo not drawn)	> 200 µM	8.71 µM	
O=C1c2ccccc2C(=O)C1(Br)C(Cl)c1ccccc1 (stereo not drawn)	> 200 µM	3.55 µM	
CCOC(=O)CN1C(=O)Cc2ccccc21	> 200 µM	97.7 µM	
O=[N+]([O-])c1ccc(-n2nnc(C3=NCCCN3)c2-c2ccc(Cl)cc2)cc1	1.38 µM	148 µM	
CC(C)OC(=O)C1=C(O)c2ccccc2S(=O)(=O)N1C	> 832 µM	56.2 µM	
C=CCNC(=S)N1c2ccccc2NC(=O)CC1C (stereo not drawn)	> 661 µM	> 661 µM	
CC(=O)Nc1ccc2[nH]c(C(=O)N3CC(CCl)c4c3cc(N)c3ccccc43)cc2c1 (stereo not drawn)	> 0.2 µM	0.00933 µM	
COC(=O)C(=O)C(C(=O)C(=O)Nc1cc([N+](=O)[O-])ccc1C#N)c1nc2ccccc2[nH]c1=O (stereo not drawn)			inactive
c1cc(CN2CCNCCNCCNCC2)cc(CN2CCNCCNCCNCC2)c1	> 200 µM	> 200 µM	
COc1ccc(NC(=O)C(=O)C2NC(=S)NC2=O)c(OC)c1 (stereo not drawn)	> 776 µM	> 776 µM	
NC(F)(Cc1ccccc1)C(=O)O (stereo not drawn)	> 200 µM	> 200 µM	
O=C(O)[C@@H]1CSC(c2ccccc2F)N1 (stereo partly drawn)	> 200 µM	> 200 µM	
CCC(CC)C(=O)NCC(=O)NO	> 200 µM	> 200 µM	
O=C1c2cccc3cccc(c23)C(=O)N1CCCN1C(=O)c2cccc3cccc(c23)C1=O	> 200 µM	110 µM	
